Assay results taken from PubChem BioAssay AID1645862 (Buhrlage Lab, Dana-Farber Cancer Institute and Novartis …, 2021).
The source made the active and inactive calls. The rule behind the calls is not given here.

The compounds below were run against Ubiquitin carboxyl-terminal hydrolase 8 (Homo sapiens) (UniProt P40818) (assay: Ubiquitin-specific protease 8 inhibitors, concentration-effect, biochemical, validation of initial actives (AID 1645862;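 note: potency reflects inhibition of USP8 cleavage of a ubiquitin rhodamine substrate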)). Settings: recombinant USP8 deubiquitinase activity assay.
Sequence of Ubiquitin carboxyl-terminal hydrolase 8 (Homo sapiens) (P40818 whole entry, looked up): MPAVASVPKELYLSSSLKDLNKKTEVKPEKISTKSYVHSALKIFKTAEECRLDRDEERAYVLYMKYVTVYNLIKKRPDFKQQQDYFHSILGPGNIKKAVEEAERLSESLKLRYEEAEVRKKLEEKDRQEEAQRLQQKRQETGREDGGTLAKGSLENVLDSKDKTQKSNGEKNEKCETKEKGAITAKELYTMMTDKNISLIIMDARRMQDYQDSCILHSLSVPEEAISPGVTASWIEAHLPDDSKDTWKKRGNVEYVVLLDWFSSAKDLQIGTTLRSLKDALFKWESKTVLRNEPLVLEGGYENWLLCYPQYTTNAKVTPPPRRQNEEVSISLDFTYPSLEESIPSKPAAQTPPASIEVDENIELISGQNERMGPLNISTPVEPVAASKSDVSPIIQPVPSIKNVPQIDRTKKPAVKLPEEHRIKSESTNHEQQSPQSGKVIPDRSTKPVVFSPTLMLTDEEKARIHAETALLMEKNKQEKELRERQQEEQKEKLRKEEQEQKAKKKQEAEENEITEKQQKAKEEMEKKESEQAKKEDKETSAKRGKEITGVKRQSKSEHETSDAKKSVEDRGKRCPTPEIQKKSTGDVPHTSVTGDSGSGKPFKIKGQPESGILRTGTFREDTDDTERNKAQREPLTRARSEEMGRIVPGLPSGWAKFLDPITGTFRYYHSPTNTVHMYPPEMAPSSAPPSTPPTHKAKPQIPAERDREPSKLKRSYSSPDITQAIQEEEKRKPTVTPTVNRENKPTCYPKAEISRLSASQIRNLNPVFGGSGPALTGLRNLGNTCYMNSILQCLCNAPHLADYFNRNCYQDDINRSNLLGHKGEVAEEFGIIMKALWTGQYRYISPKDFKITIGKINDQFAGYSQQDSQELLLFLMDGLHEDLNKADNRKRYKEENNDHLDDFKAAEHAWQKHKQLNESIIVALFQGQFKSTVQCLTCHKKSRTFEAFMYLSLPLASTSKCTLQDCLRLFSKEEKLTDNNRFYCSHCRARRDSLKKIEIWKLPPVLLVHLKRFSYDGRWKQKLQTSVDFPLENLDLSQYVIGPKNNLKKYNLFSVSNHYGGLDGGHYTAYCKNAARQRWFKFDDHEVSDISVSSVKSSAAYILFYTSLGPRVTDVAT
In the case of `Cc1ccc(C(=O)c2cn(CC(=O)Nc3ccc(F)c(F)c3)c3ccc(F)cc3c2=O)cc1`, the IC50 is reported as > 40 µM (inactive). In the case of `COc1ccc(NS(=O)(=O)c2cc(NC(=O)CC(=O)c3ccc([N+](=O)[O-])cc3)ccc2C)cc1`, the IC50 is reported as > 40 µM (inactive). Work on `O=C1Cc2ccccc2C(=O)N1c1ccc2c(c1)OCO2` yielded an IC50 of 38.3 µM. With `COc1cccc(C2c3[nH]c4ccccc4c3C[C@@H]3C(=O)N(C4CC4)CC(=O)N23)c1` (some centres undefined) the IC50 was > 40 µM (inactive). For `O=C(Cn1c(=O)n(CC2CCC(C(=O)NC3CCCC3)CC2)c(=O)c2ccccc21)NCCC1=CCCCC1` (centres undefined), the IC50 was > 40 µM (inactive). In the case of `O=C(NCc1ccc(Cl)cc1)c1cc2c(s1)-c1ccccc1OC2`, the IC50 is reported as > 40 µM (inactive). In the case of `CC(C)CCCCCCCCCCC(=O)N(C)[C@H](CO)C(=O)N[C@H](C)C(=O)NCC(=O)N(C)C1C(=O)N[C@@H](C)C(=O)NC(C(=O)O)Cc2ccc(O)c(c2)-c2cc1ccc2O` (some centres undefined), the IC50 is reported as > 40 µM (inactive). With `O=S1(=O)CCN(Cc2cccnc2)c2c(F)nc(N3CCOCC3)c(F)c21` the IC50 was > 40 µM (inactive). `Cc1cc(NS(=O)(=O)c2ccc(NC(=O)c3ccc(N4CCCC4)c([N+](=O)[O-])c3)cc2)no1` was tested, and the IC50 was > 40 µM (inactive). For `CC(C)=CCC/C(C)=C/COc1ccc(/C=C2\C(=O)N(O)[C@@H](C)C(=O)N2O)cc1`, the IC50 was > 40 µM (inactive). `COc1ccc(-n2c(=O)c3ccc(C(=O)NCCc4ccccc4)cc3n(CC(=O)NCCC3=CCCCC3)c2=O)cc1` was tested, and the IC50 was > 40 µM (inactive). `COc1ccc(C(=O)CSc2nnc(-c3cc4ccccc4o3)n2C)cc1` was tested, and the IC50 was > 40 µM (inactive). With `CCOc1ccc(-c2nnc(NC(=O)C3CCN(S(=O)(=O)c4ccc5c(c4)CCC5)CC3)o2)cc1` the IC50 was > 40 µM (inactive). `O=C(Nc1ccccc1C(=O)NC1CCSC1)c1ccc([N+](=O)[O-])cc1` (centres undefined) was tested, and the IC50 was > 40 µM (inactive). For `CCc1ccccc1NC(=O)CN1C(=O)C2CCCC2=Nc2ccccc21` (centres undefined), the IC50 was > 40 µM (inactive). `CCOc1ccc(NS(=O)(=O)c2ccc(NC(=O)Nc3ccccc3)cc2)cc1` was tested, and the IC50 was > 40 µM (inactive). For `CCOc1ccc2[nH]c(=O)c(-c3nc4ccc(C)cn4c3NCc3ccccc3)cc2c1`, the IC50 was > 40 µM (inactive). In the case of `COc1ccc(C(=O)Nc2nc(-c3ccc4c(c3)NC(=O)CO4)c(C)s2)cc1OC`, the IC50 is reported as > 40 µM (inactive). With `N#Cc1cccc(NC(=O)COC(=O)c2n[nH]c3ccccc23)c1` the IC50 was > 40 µM (inactive). `Cc1ccc(-c2nc3c(c(SCC(=O)c4ccccc4)n2)COC(C)(C)C3)cc1` was tested, and the IC50 was > 40 µM (inactive). `O=C(NCCc1nc2ccccc2n1Cc1ccccc1F)c1ccc(Cl)cc1` was tested, and the IC50 was > 40 µM (inactive). With `CSc1cccc(NC(=O)c2cc(-c3cccnc3)n[nH]2)c1` the IC50 was > 40 µM (inactive). In the case of `Cn1c(C(=O)NCc2ccccn2)cc2c(=O)[nH]c3ccccc3c21`, the IC50 is reported as > 40 µM (inactive). For `O=C(CCCCCn1c(=O)c2sccc2n(CC(=O)c2ccc(F)cc2)c1=O)NCc1ccccc1Cl`, the IC50 was > 40 µM (inactive). `Cc1ccc(C(=O)NCc2ccc(C(=O)Nc3ccc(Cl)cc3)o2)cc1` was tested, and the IC50 was > 40 µM (inactive). Compound `CC1OC2CC(O)C1(O)C1=C2C(O)=C(C(N)=O)C(=N)C1=O` (centres undefined) has an IC50 of 1.56 µM. In the case of `NC(=O)C[C@H](NC(=O)[C@H](Cc1ccccc1)n1c(=O)[nH]c2ccccc2c1=O)C(=O)N[C@@H](Cc1ccccc1)C(=O)O`, the IC50 is reported as > 40 µM (inactive). `CC(C)n1cc(CN2CCC(C(=O)Nc3cccc(-c4cccc(Cl)c4)c3)CC2)cn1` was tested, and the IC50 was > 40 µM (inactive). Compound `Cn1c(=O)[nH]c2nncnc2c1=O` has an IC50 of 20.7 µM. For `Fc1cccc(Nc2nc(-c3ccccn3)nc3ccccc23)c1`, the IC50 was > 40 µM (inactive). For `CC(=O)c1cccc(NC(=O)COC(=O)c2sc3cc(F)ccc3c2Cl)c1`, the IC50 was > 40 µM (inactive). For `O=C(CCCc1nnc2c(=O)n(-c3cccc(F)c3)ccn12)Nc1ccccc1`, the IC50 was > 40 µM (inactive). `Cc1c(-c2nsc(NC(=O)c3ccc(Cl)cc3)n2)nnn1-c1ccccc1F` was tested, and the IC50 was > 40 µM (inactive). For `COC(=O)c1ccc(NC(=O)/C=C/c2ccc(F)cc2)cc1`, the IC50 was > 40 µM (inactive). In the case of `COc1ccc(NC(=O)CC(=O)c2ccc([N+](=O)[O-])cc2)cc1S(=O)(=O)Nc1ccc(Cl)cc1`, the IC50 is reported as > 40 µM (inactive). For `COc1ccccc1NC(=O)CSC1=NC2(CCCCC2)Nc2ccccc21`, the IC50 was > 40 µM (inactive). In the case of `CCc1ccc(NC(=O)C(C)OC(=O)/C=C/c2ccc(S(=O)(=O)Nc3cccc(S(N)(=O)=O)c3)cc2)cc1` (centres undefined), the IC50 is reported as > 40 µM (inactive). `CCOc1ccc(C2/C(=C(\O)c3ccccc3)C(=O)C(=O)N2c2nc3ccc(F)cc3s2)cc1` (centres undefined) was tested, and the IC50 was > 40 µM (inactive). With `O=C(Cn1c(=O)n(Cc2ccc(C(=O)NC3CCCC3)cc2)c(=O)c2ccccc21)c1ccc(Cl)c(Cl)c1` the IC50 was > 40 µM (inactive). With `CCc1cccc(C)c1NC(=O)Cn1c(C(C)NC(=O)c2ccc(C)cc2)nc2ccccc21` (centres undefined) the IC50 was > 40 µM (inactive). With `Cn1c(CCNC(=O)c2[nH]nc3c2CCc2ccccc2-3)nc2ccccc21` the IC50 was > 40 µM (inactive). With `COc1c(C)c(OC(=O)c2c(C)c(C)c(OC(=O)c3c(C)c(C)c(O)c(C)c3O)c(C)c2OC)c(C)c(C)c1C(=O)O` the IC50 was > 40 µM (inactive). `COc1ccc(NC(=O)c2nnc(C(=O)NCc3ccccc3F)s2)cc1` was tested, and the IC50 was > 40 µM (inactive). Work on `COc1ccc(Nc2nnc(Cc3ccc(Cl)cc3)c(=O)[nH]2)cc1` yielded an IC50 of 29.2 µM. In the case of `CCC(=O)Nc1nc2cc(NC(=O)Nc3ccccc3Cl)ccc2s1`, the IC50 is reported as > 40 µM (inactive). `COc1ccc(-c2ccc3cc(C(=O)O)ccc3c2)cc1C12CC3CC(CC(C3)C1)C2` was tested, and the IC50 was 8.03 µM. `CCOC(=O)c1cc2c(ccn2C)n1CC(=O)NC1CC1` was tested, and the IC50 was > 40 µM (inactive). For `COc1ccccc1Nc1ncc(C(=O)NCCc2ccc(Cl)cc2)c2ccccc12`, the IC50 was > 40 µM (inactive). In the case of `CC(CCc1ccccc1)NC(=O)Cn1c(=O)c2cccn2c2ccccc21` (centres undefined), the IC50 is reported as > 40 µM (inactive). `Cc1ccc2[nH]c3c(=O)n(Cc4ccc(N(C)C)cc4)cnc3c2c1` was tested, and the IC50 was 30.7 µM. In the case of `O=C(Cn1c(=O)c2ccccc2n(CC(=O)Nc2cccc(F)c2)c1=O)NCCc1ccccc1`, the IC50 is reported as > 40 µM (inactive). With `COC(=O)c1ccc2c(=O)n(CCCCCC(=O)NCCC3=CCCCC3)c(=O)[nH]c2c1` the IC50 was > 40 µM (inactive). For `COc1ccc(Cl)cc1NC(=O)Cn1c(=O)n(CCCC(=O)NCc2ccc(C)cc2)c(=O)c2sccc21`, the IC50 was > 40 µM (inactive). For `COc1ccc(OC)c2c(C)cc(N3CC(C)CC(C)C3)nc12` (centres undefined), the IC50 was > 40 µM (inactive). With `O=C(CCn1c(=O)c2ccccc2n(Cc2ccc(F)cc2Cl)c1=O)NCc1ccco1` the IC50 was > 40 µM (inactive). `Cc1ccc(Cl)cc1NC(=O)c1cc(-c2ccccn2)n[nH]1` was tested, and the IC50 was > 40 µM (inactive). `COc1cc(OC)c2c(c1)C(=O)C1=C(COC(C)(O)C1)C2=O` (centres undefined) was tested, and the IC50 was > 40 µM (inactive). `Cc1ccc(NC(=O)c2ccc3nn(CC(=O)Nc4ccc(F)cc4F)c(=O)n3c2)cc1` was tested, and the IC50 was > 40 µM (inactive). In the case of `O=C(c1ccncc1)N1CCN(CC2CC=CCC2)CC1` (centres undefined), the IC50 is reported as > 40 µM (inactive). For `Cc1nc(-c2ccc(C(=O)Nc3ccc(F)cc3)cc2)cs1`, the IC50 was > 40 µM (inactive). Work on `O=C(NC1(O)C(=O)c2ccccc2C1=O)c1cccc2c1-c1ccccc1C2=O` yielded an IC50 of 6.52 µM. In the case of `Cc1nc2c(-c3ccc(Cl)cc3)c[nH]n2c(=O)c1Cc1ccccc1`, the IC50 is reported as > 40 µM (inactive). `COc1cccc2cc(-c3nnc(SCC(=O)c4ccc(F)cc4)n3C)oc12` was tested, and the IC50 was > 40 µM (inactive). `Cc1ccc(C(=O)O)cc1NC(=O)C(Sc1cccc(NC(=O)c2ccccc2C)c1)c1ccccc1` (centres undefined) was tested, and the IC50 was > 40 µM (inactive). `O=C(CCSc1ccc(Cl)cc1)c1cccs1` was tested, and the IC50 was > 40 µM (inactive). `Cn1c(=O)n(CCc2ccccc2)c(=O)c2c1nc1n2CCN1Cc1ccccc1` was tested, and the IC50 was > 40 µM (inactive). `COc1c(O)cc(CC(=O)O)c(C(C)=O)c1O` gave an IC50 of 4.69 µM. `CCc1ccccc1NC(=O)Cn1c(=O)n(CC(=O)NCc2ccccc2Cl)c(=O)c2sccc21` was tested, and the IC50 was > 40 µM (inactive). For `N#Cc1cccc(NC(=O)Nc2cccn(Cc3ccc(F)cc3)c2=O)c1`, the IC50 was > 40 µM (inactive). In the case of `CC(C)(C)C(=O)[C@@H]1[C@@H](C(=O)c2ccc3c(c2)OCO3)[C@@]2(C(=O)Nc3ccccc32)[C@H]2c3ccccc3C=CN12`, the IC50 is reported as 7.11 µM. `CCCCOc1ccc(-c2cc3n(c(=N)c2C#N)CCc2cc4c(cc2-3)OCCCO4)cc1OC` was tested, and the IC50 was > 40 µM (inactive). With `Cc1ccc(-n2nc(C)c3c2NC(=O)CC3C(=O)c2cc3ccccc3o2)cc1` (centres undefined) the IC50 was > 40 µM (inactive). With `Cc1cc(C)c(O)c(-c2cc(C(=O)Nc3ccccc3Cl)[nH]n2)c1` the IC50 was > 40 µM (inactive). For `O=C(NCc1ccco1)c1ccc(Cn2c(SCc3ccccc3)nc3ccncc32)cc1`, the IC50 was > 40 µM (inactive). `Cc1ccc2c(c1)c(=O)c(C(=O)c1ccccc1)cn2CC(=O)Nc1ccc2c(c1)OCO2` was tested, and the IC50 was > 40 µM (inactive). `CCOc1ccc2nc(NC(=O)c3ccc4ccccc4n3)sc2c1` was tested, and the IC50 was > 40 µM (inactive). `CN(C)S(=O)(=O)c1ccc(NC(=O)CN2CCCc3ccccc32)cc1` was tested, and the IC50 was > 40 µM (inactive). In the case of `COc1ccc(OC)c(-c2cn3ccn(-c4ccc(F)c(Cl)c4)c(=O)c3n2)c1`, the IC50 is reported as 20.6 µM. `Cc1cc(C)c(NC(=O)Cn2c(=O)n(CCC(=O)NCc3ccc4c(c3)OCO4)c(=O)c3sccc32)c(C)c1` was tested, and the IC50 was > 40 µM (inactive). `COc1cc(-c2ccccc2)c(O)c(O)c1-c1ccccc1` gave an IC50 of 16 µM. With `COc1cc(O)cc2c1C(=O)OC(C)CCCCCCC2` (centres undefined) the IC50 was > 40 µM (inactive). In the case of `O=C(Cn1c(=O)n(-c2ccccc2)c(=O)c2ccc(C(=O)NCc3ccc4c(c3)OCO4)cc21)NCCC1=CCCCC1`, the IC50 is reported as > 40 µM (inactive). For `CSc1ccc(CNC(=O)Cn2nc(C)c3c(C)n(-c4ccccc4)nc3c2=O)cc1`, the IC50 was 19.5 µM. In the case of `COc1ccccc1C(=O)Nc1ccc(-c2nc3ccccc3o2)c(O)c1`, the IC50 is reported as > 40 µM (inactive). With `CC(C)NC(=O)Cn1ccn2nc(-c3ccc(Cl)cc3)cc2c1=O` the IC50 was > 40 µM (inactive). In the case of `COc1ccc(-n2ccn3c(CCC(=O)Nc4cccc(C)c4)nnc3c2=O)cc1`, the IC50 is reported as > 40 µM (inactive). With `COc1ccccc1CNC(=O)Cn1cnc2c(-c3ccccc3)csc2c1=O` the IC50 was > 40 µM (inactive). In the case of `O=C(COc1ccc(N2CC(C(=O)NCc3ccc4c(c3)OCO4)CC2=O)cc1)Nc1ccc(Cl)cc1` (centres undefined), the IC50 is reported as > 40 µM (inactive). For `Cc1cccc(N2C(=O)/C(=C\c3ccc4c(c3)OCCO4)c3ccccc3C2=O)c1`, the IC50 was > 40 µM (inactive).
